The results in this text go back to US20260022142A1, “MACROCYCLIC IMMUNOMODULATORS” (Bristol-Myers Squibb Company, priority 2022, published 2026).

Molecules are shown by their SMILES. Bridge positions count the residues as written; N and C are the ends. Square brackets hold non-standard residues; d marks the D form. Peptide text beside a SMILES is read from it. * marks the point of attachment. ξ: configuration not given here. Bip = N[C@@H](Cc1ccc(-c2ccccc2)cc1)C(=O)O; hArg = N=C(N)NCCCC[C@H](N)C(=O)O; 3Thi = N[C@@H](Cc1ccsc1)C(=O)O; Cha = N[C@@H](CC1CCCCC1)C(=O)O; Ile(3ξ) = CCC(C)[C@H](N)C(=O)O; Thr(3ξ) = CC(O)[C@H](N)C(=O)O; Carboxymethyl = O=C(O)C*; Orn = NCCC[C@H](N)C(=O)O; Aun = NCCCCCCCCCCC(=O)O; Dab = NCC[C@H](N)C(=O)O; Dap = NC[C@H](N)C(=O)O; AEEA = NCCOCCOCC(=O)O

The target in the assay is T1, PD-1/PD-L1 interaction (PE-labeled human PD-L1-Ig binding to Jurkat cell line over-expressing human PD-1) (Homo sapiens, UniProt Q15116).
T1 construct: expressed in transfected cells; host or cells: Jurkat
T1 sequence (Q15116 25-288): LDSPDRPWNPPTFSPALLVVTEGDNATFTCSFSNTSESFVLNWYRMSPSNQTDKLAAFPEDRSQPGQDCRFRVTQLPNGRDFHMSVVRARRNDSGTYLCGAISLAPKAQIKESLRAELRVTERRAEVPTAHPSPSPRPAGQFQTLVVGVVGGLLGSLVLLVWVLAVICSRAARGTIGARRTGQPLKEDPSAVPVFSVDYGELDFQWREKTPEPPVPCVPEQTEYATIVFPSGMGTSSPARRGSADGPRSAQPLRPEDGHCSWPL
In words: Jurkat-PD-1 Cell Binding High-Content Screening Assay (CBA). The note with it: Jurkat cell line over-expressing human PD-1; PE-labeled PD-L1-Ig 20 nM final; read-out: Jurkat hPD1-PDL1 IC50. The class given is cell-based. In short, it runs like this:
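Jurkat cells stably over-expressing human PD-1 were seeded in DMEM with 10% fetal calf serum and pre-incubated with compound for 2 h at 37° C. PE-labeled human PD-L1-Ig was then added at 20 nM final for 1 hour, after which cells were fixed with paraformaldehyde, Hoechst-stained and imaged by high-content microscopy.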
The term IC50 denotes the concentration needed to halve the response being measured. For the compound `CC(C)[C@@H]1NC(=O)[C@H](CC2CCCCC2)NC(=O)[C@H](CCN)NC(=O)[C@@H](C)NC(=O)[C@H](CCN)NC(=O)[C@H](C(C)C)NC(=O)[C@H](Cc2ccc(-c3ccccc3)cc2)NC(=O)[C@H](C(C)C)NC(=O)[C@H](Cc2c[nH]c3ccccc23)NC(=O)[C@H](CC(=O)O)NC(=O)[C@H](Cc2ccc(OCC(=O)O)cc2)NC(=O)[C@H](CCCCNC(=N)N)NC(=O)CSC[C@@H](C(=O)N[C@@H](CCN)C(=O)NCCOCCOCC(=O)NCCCCCCCCCCC(=O)O)NC(=O)[C@H](CCCN)NC1=O` [Compound 3279] ({CH2CO}-[hArg]Y(Carboxymethyl)DWV[Bip]V[Dab][dA][Dab][Cha]V[Orn]C[Dab][AEEA][Aun]-OH; thioether N-14), the IC50 amounted to 46.7 nM.
As to `CC(C)C[C@H]1NC(=O)[C@H](CCN)NC(=O)[C@H](C(C)C)NC(=O)[C@H](Cc2ccc(-c3ccccc3)cc2)NC(=O)[C@H](C(C)C)NC(=O)[C@H](Cc2c[nH]c3ccccc23)NC(=O)[C@H](CC(=O)O)NC(=O)[C@H](Cc2ccc(OCC(=O)O)cc2)NC(=O)[C@H](Cc2ccsc2)NC(=O)CSC[C@@H](C(=O)NCCOCCOCC(=O)NCCCCCCCCCCC(=O)O)NC(=O)[C@H](C(C)O)NC(=O)[C@H](C(C)C)NC(=O)[C@H](CC2CCCCC2)NC(=O)[C@H](CCN)NC1=O` (stereo partly drawn) [Compound 3280] ({CH2CO}-[3Thi]Y(Carboxymethyl)DWV[Bip]V[Dab][dL][Dab][Cha]V[Thr(3ξ)]C[AEEA][Aun]-OH; thioether N-14), the IC50 amounted to 42.2 nM.
As for `CC(C)C[C@H]1NC(=O)[C@H](CCN)NC(=O)[C@H](C(C)C)NC(=O)[C@H](Cc2ccc(-c3ccccc3)cc2)NC(=O)[C@H](C(C)C)NC(=O)[C@H](Cc2c[nH]c3ccccc23)NC(=O)[C@H](CC(=O)O)NC(=O)[C@H](Cc2ccc(OCC(=O)O)cc2)NC(=O)[C@H](Cc2ccsc2)NC(=O)CSC[C@@H](C(=O)N[C@@H](CCCN)C(=O)NCCCCCCCCCCC(=O)O)NC(=O)[C@H](C(C)O)NC(=O)[C@H](C(C)C)NC(=O)[C@H](CC2CCCCC2)NC(=O)[C@H](CCN)NC1=O` (stereo partly drawn) [Compound 3281] ({CH2CO}-[3Thi]Y(Carboxymethyl)DWV[Bip]V[Dab][dL][Dab][Cha]V[Thr(3ξ)]C[Orn][Aun]-OH; thioether N-14), the IC50 is 98.7 nM.
Consider `CC(C)C[C@H]1NC(=O)[C@H](CCN)NC(=O)[C@H](C(C)C)NC(=O)[C@H](Cc2ccc(-c3ccccc3)cc2)NC(=O)[C@H](C(C)C)NC(=O)[C@H](Cc2c[nH]c3ccccc23)NC(=O)[C@H](CC(=O)O)NC(=O)[C@H](Cc2ccc(OCC(=O)O)cc2)NC(=O)[C@H](Cc2ccsc2)NC(=O)CSC[C@@H](C(=O)N[C@@H](CCN)C(=O)NCCCCCCCCCCC(=O)O)NC(=O)[C@H](C(C)O)NC(=O)[C@H](C(C)C)NC(=O)[C@H](CC2CCCCC2)NC(=O)[C@H](CCN)NC1=O` (stereo partly drawn) [Compound 3282] ({CH2CO}-[3Thi]Y(Carboxymethyl)DWV[Bip]V[Dab][dL][Dab][Cha]V[Thr(3ξ)]C[Dab][Aun]-OH; thioether N-14), for which the IC50 came out at 119 nM.
The figure for `CC(C)C[C@H]1NC(=O)[C@H](CCN)NC(=O)[C@H](C(C)C)NC(=O)[C@H](Cc2ccc(-c3ccccc3)cc2)NC(=O)[C@H](C(C)C)NC(=O)[C@H](Cc2c[nH]c3ccccc23)NC(=O)[C@H](CC(=O)O)NC(=O)[C@H](Cc2ccc(OCC(=O)O)cc2)NC(=O)[C@H](Cc2ccsc2)NC(=O)CSC[C@@H](C(=O)NCCOCCOCC(=O)N[C@@H](CCN)C(=O)NCCCCCCCCCCC(=O)O)NC(=O)[C@H](CCCNC(=N)N)NC(=O)[C@H](C(C)C)NC(=O)[C@H](CC2CCCCC2)NC(=O)[C@H](CCN)NC1=O` [Compound 3283] ({CH2CO}-[3Thi]Y(Carboxymethyl)DWV[Bip]V[Dab][dL][Dab][Cha]VRC[AEEA][Dab][Aun]-OH; thioether N-14) is 13.8 nM.
On to `CC(C)C[C@H]1NC(=O)[C@H](CCN)NC(=O)[C@H](C(C)C)NC(=O)[C@H](Cc2ccc(-c3ccccc3)cc2)NC(=O)[C@H](C(C)C)NC(=O)[C@H](Cc2c[nH]c3ccccc23)NC(=O)[C@H](CC(=O)O)NC(=O)[C@H](Cc2ccc(OCC(=O)O)cc2)NC(=O)[C@H](Cc2ccsc2)NC(=O)CSC[C@@H](C(=O)NCCOCCOCC(=O)N[C@@H](CCN)C(=O)NCCCCCCCCCCC(=O)O)NC(=O)[C@H](CCCN)NC(=O)[C@H](C(C)C)NC(=O)[C@H](CC2CCCCC2)NC(=O)[C@H](CCN)NC1=O` [Compound 3284] ({CH2CO}-[3Thi]Y(Carboxymethyl)DWV[Bip]V[Dab][dL][Dab][Cha]V[Orn]C[AEEA][Dab][Aun]-OH; thioether N-14), for which the half-maximal inhibitory concentration (IC50) is 10.2 nM.
`CCC(C)[C@@H]1NC(=O)[C@H](Cc2ccc(-c3ccccc3)cc2)NC(=O)[C@H](C(C)C)NC(=O)[C@H](Cc2c[nH]c3ccccc23)NC(=O)[C@H](CC(=O)O)NC(=O)[C@H](Cc2ccc(OCC(=O)O)cc2)NC(=O)[C@H](CCCNC(=N)N)NC(=O)CSC[C@@H](C(=O)N[C@H](CC(N)=O)C(=O)NCCCCCCCCCCC(=O)O)NC(=O)[C@H](CCCN)NC(=O)[C@H](C(C)C)NC(=O)[C@H](CC2CCCCC2)NC(=O)[C@H](CCN)NC(=O)[C@@H](CC(C)C)NC(=O)[C@H](CCN)NC1=O` (stereo partly drawn) [Compound 3285] ({CH2CO}-RY(Carboxymethyl)DWV[Bip][Ile(3ξ)][Dab][dL][Dab][Cha]V[Orn]C[dN][Aun]-OH; thioether N-14): the IC50 turned out to be 9.3 nM.
Turning to `CC(C)C[C@H]1NC(=O)[C@H](CCN)NC(=O)[C@H](C(C)C)NC(=O)[C@H](Cc2ccc(-c3ccccc3)cc2)NC(=O)[C@H](C(C)C)NC(=O)[C@H](Cc2c[nH]c3ccccc23)NC(=O)[C@H](CC(=O)O)NC(=O)[C@H](Cc2ccc(OCC(=O)O)cc2)NC(=O)[C@H](Cc2ccsc2)NC(=O)CSC[C@@H](C(=O)N[C@H](CC(N)=O)C(=O)NCCCCCCCCCCC(=O)O)NC(=O)[C@H](CCCCN)NC(=O)[C@H](C(C)C)NC(=O)[C@H](CC2CCCCC2)NC(=O)[C@H](CCN)NC1=O` [Compound 3286] ({CH2CO}-[3Thi]Y(Carboxymethyl)DWV[Bip]V[Dab][dL][Dab][Cha]VKC[dN][Aun]-OH; thioether N-14), the IC50 was determined as 8.3 nM.
As for `CC(C)C[C@H]1NC(=O)[C@H](CCCN)NC(=O)[C@H](C(C)C)NC(=O)[C@H](Cc2ccc(-c3ccccc3)cc2)NC(=O)[C@H](C(C)C)NC(=O)[C@H](Cc2c[nH]c3ccccc23)NC(=O)[C@H](CC(=O)O)NC(=O)[C@H](Cc2ccc(OCC(=O)O)cc2)NC(=O)[C@H](CCCNC(=N)N)NC(=O)CSC[C@@H](C(=O)N[C@@H](CCN)C(=O)NCCCCCCCCCCC(=O)O)NC(=O)[C@H](CN)NC(=O)[C@H](C(C)C)NC(=O)[C@H](CC2CCCCC2)NC(=O)[C@H](CCN)NC1=O` [Compound 3287] ({CH2CO}-RY(Carboxymethyl)DWV[Bip]V[Orn][dL][Dab][Cha]V[Dap]C[Dab][Aun]-OH; thioether N-14), the half-inhibitory concentration (IC50) came to 10.8 nM.
As to `CC(C)C[C@H]1NC(=O)[C@H](CCCN)NC(=O)[C@H](C(C)C)NC(=O)[C@H](Cc2ccc(-c3ccccc3)cc2)NC(=O)[C@H](C(C)C)NC(=O)[C@H](Cc2c[nH]c3ccccc23)NC(=O)[C@H](CC(=O)O)NC(=O)[C@H](Cc2ccc(OCC(=O)O)cc2)NC(=O)[C@H](CCCNC(=N)N)NC(=O)CSC[C@@H](C(=O)N[C@@H](CCN)C(=O)NCCCCCCCCCCC(=O)O)NC(=O)[C@H](CCN)NC(=O)[C@H](C(C)C)NC(=O)[C@H](CC2CCCCC2)NC(=O)[C@H](CCN)NC1=O` [Compound 3288] ({CH2CO}-RY(Carboxymethyl)DWV[Bip]V[Orn][dL][Dab][Cha]V[Dab]C[Dab][Aun]-OH; thioether N-14), the 50% inhibitory concentration (IC50) came to 13.7 nM.
